What follows are molecules tested against T1, human GPR119 (Homo sapiens, UniProt Q8TDV5) (assay: Functional cellular assay measuring GPR119-mediated cAMP release (HTRF) in HEK-293 cells stably expressing recombinant human GPR119). Details: cAMP response, cell line expressing human GPR119, 30 minutes at room temperature.
T1 construct: expressed in transfected cells
T1 sequence (Q8TDV5 1-335): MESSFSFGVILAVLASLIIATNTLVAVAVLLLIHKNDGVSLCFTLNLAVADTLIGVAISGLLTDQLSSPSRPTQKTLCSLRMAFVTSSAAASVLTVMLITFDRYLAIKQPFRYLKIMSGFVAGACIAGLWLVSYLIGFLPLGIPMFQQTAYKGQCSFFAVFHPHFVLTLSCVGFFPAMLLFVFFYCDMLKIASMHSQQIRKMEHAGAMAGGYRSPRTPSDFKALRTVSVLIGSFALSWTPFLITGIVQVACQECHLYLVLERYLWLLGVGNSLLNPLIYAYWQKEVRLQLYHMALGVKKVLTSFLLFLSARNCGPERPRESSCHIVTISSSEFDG
Assay type: cell-based
Experimental: Functional Cellular Assays Measuring GPR119-Mediated cAMP Release
Compounds of the invention, which are agonists of GPR119, were characterized by functional assays measuring the cAMP response of HEK-293 cell lines stably expressing recombinant GPR119 from man, mouse or rat, or by using a hamster cell line HIT-T15 expressing GPR119 endogenously. The cAMP content was determined using a kit based on homogenous time-resolved fluorescence (HTRF) from Cisbio Corp. (cat. no. 62AM4PEC). For preparation, cells were split into T175 culture flasks and grown to near confluency in medium (DMEM/10% FCS for HEK-293 cells, and F-12K medium/10% horse serum/2.5% FCS for HIT-T15 cells, respectively). Medium was then removed and cells washed with PBS lacking calcium and magnesium ions, followed by proteinase treatment with accutase (Sigma-Aldrich, cat. no. A6964). Detached cells were washed and resuspended in assay buffer (1×HBSS; 20 mM HEPES, 0.1% BSA, 2 mM IBMX) and cellular density determined. They were then diluted to 400000 cells/mL and 25 μL-aliquots dispensed to the wells of 96-well plates. For measurement, 25 μL of test compound in assay buffer was added and incubated for 30 minutes at room temperature. After addition of HTRF reagents diluted in lysis buffer, the plates were incubated for 1 hour, followed by measuring the fluorescence ratio at 665 vs. 620 nm. Potency of the agonists was quantified by determining the concentrations that caused 50% of the maximal response/activation (EC50). See Table 7 for exemplary data obtained using the cell line expressing human GPR119.

| Structure (SMILES) | EC50 |
| --- | --- |
| C[S+]([O-])CN1Cc2ccc(N3CC[C@@H](Oc4ccc(OCC5CC5)nc4)C3=O)cc2C1=O (stereo partly drawn) [Example 1-52, 6-[(3R)-3-[[6-(cyclopropylmethoxy)-3-pyridyl]oxy]-2-oxo-pyrrolidin-1-yl]-2-(methylsulfinylmethyl)isoindolin-1-one] | 124 nM |
| CS(=O)(=O)CN1Cc2ccc(N3CC[C@@H](Oc4ccc(Oc5ccc(F)cc5)nc4)C3=O)cc2C1=O [Example 1-53, 6-[(3R)-3-[[6-(4-fluorophenoxy)-3-pyridyl]oxy]-2-oxo-pyrrolidin-1-yl]-2-(methylsulfonylmethyl)isoindolin-1-one] | 98 nM |
| C[S+]([O-])CN1Cc2ccc(N3CC[C@@H](Oc4ccc(OCC(F)(F)F)nc4)C3=O)cc2C1=O (stereo partly drawn) [Example 1-54, 2-(methylsulfinylmethyl)-6-[(3R)-2-oxo-3-[[6-(2,2,2-trifluoroethoxy)-3-pyridyl]oxy]pyrrolidin-1-yl]isoindolin-1-one] | 66 nM |
| C[S+]([O-])CN1Cc2ncc(N3CC[C@@H](Oc4ccc(Oc5ccc(F)cc5)nc4)C3=O)cc2C1=O (stereo partly drawn) [Example 1-55, 3-[(3R)-3-[[6-(4-fluorophenoxy)-3-pyridyl]oxy]-2-oxo-pyrrolidin-1-yl]-6-(methylsulfinylmethyl)-7H-pyrrolo[3,4-b]pyridin-5-one] | 106 nM |
| NC(=O)CN1Cc2ccc(N3CC[C@@H](Oc4ccc(OCC(F)(F)F)nc4)C3=O)cc2C1=O [Example 1-56, 2-[1-oxo-6-[(3R)-2-oxo-3-[[6-(2,2,2-trifluoroethoxy)-3-pyridyl]oxy]pyrrolidin-1-yl]isoindolin-2-yl]acetamide] | 51 nM |
| C[S+]([O-])CN1Cc2ncc(N3CC[C@@H](Oc4ccc(C(=O)C5CC5)nc4)C3=O)cc2C1=O (stereo partly drawn) [Example 1-57, 3-[(3R)-3-[[6-(cyclopropanecarbonyl)-3-pyridyl]oxy]-2-oxo-pyrrolidin-1-yl]-6-(methylsulfinylmethyl)-7H-pyrrolo[3,4-b]pyridin-5-one] | 1120 nM |
| C[S+]([O-])CN1Cc2ccc(N3CC[C@@H](Oc4ccc(C(=O)C5CC5)nc4)C3=O)cc2C1=O (stereo partly drawn) [Example 1-58, 6-[(3R)-3-[[6-(cyclopropanecarbonyl)-3-pyridyl]oxy]-2-oxo-pyrrolidin-1-yl]-2-(methylsulfinylmethyl)isoindolin-1-one] | 680 nM |
| CS(=O)(=O)CN1Cc2ccc(N3CC[C@@H](Oc4ccc(C(=O)C5CC5)nc4)C3=O)cc2C1=O [Example 1-59, 6-[(3R)-3-[[6-(cyclopropanecarbonyl)-3-pyridyl]oxy]-2-oxo-pyrrolidin-1-yl]-2-(methylsulfonylmethyl)isoindolin-1-one] | 451 nM |
| C[S+]([O-])CN1Cc2ccc(N3CC[C@@H](Oc4ccc(C(=O)C5CC5)cc4)C3=O)cc2C1=O (stereo partly drawn) [Example 1-60, 6-[(3R)-3-[4-(cyclopropanecarbonyl)phenoxy]-2-oxo-pyrrolidin-1-yl]-2-(methylsulfinylmethyl)isoindolin-1-one] | 147 nM |
| C[S+]([O-])CN1Cc2ncc(N3CC[C@@H](Oc4ccc(C(=O)C5CC5)cc4)C3=O)cc2C1=O (stereo partly drawn) [Example 1-61, 3-[(3R)-3-[4-(cyclopropanecarbonyl)phenoxy]-2-oxo-pyrrolidin-1-yl]-6-(methylsulfinylmethyl)-7H-pyrrolo[3,4-b]pyridin-5-one] | 516 nM |
| CS(=O)(=O)CN1Cc2ncc(N3CC[C@@H](Oc4ccc(C(=O)C5CC5)cc4)C3=O)cc2C1=O [Example 1-62, 3-[(3R)-3-[4-(cyclopropanecarbonyl)phenoxy]-2-oxo-pyrrolidin-1-yl]-6-(methylsulfonylmethyl)-7H-pyrrolo[3,4-b]pyridin-5-one] | 139 nM |
| C[S+]([O-])CN1Cc2ncc(N3CC[C@@H](Oc4ccc(OCC(F)(F)F)nc4)C3=O)cc2C1=O (stereo partly drawn) [Example 1-63, 6-(methylsulfinylmethyl)-3-[(3R)-2-oxo-3-[[6-(2,2,2-trifluoroethoxy)-3-pyridyl]oxy]pyrrolidin-1-yl]-7H-pyrrolo[3,4-b]pyridin-5-one] | 104 nM |
| CCOC(=O)CN1Cc2ccc(N3CC[C@@H](Oc4ccc(OCC(F)(F)F)nc4)C3=O)cc2C1=O [Example 1-64, ethyl 2-[1-oxo-6-[(3R)-2-oxo-3-[[6-(2,2,2-trifluoroethoxy)-3-pyridyl]oxy]pyrrolidin-1-yl]isoindolin-2-yl]acetate] | 27 nM |
| COC(=O)CN1Cc2ccc(N3CC[C@@H](Oc4ccc(OCC(F)(F)F)nc4)C3=O)cc2C1=O [Example 1-65, methyl 2-[1-oxo-6-[(3R)-2-oxo-3-[[6-(2,2,2-trifluoroethoxy)-3-pyridyl]oxy]pyrrolidin-1-yl]isoindolin-2-yl]acetate] | 52 nM |
| CS(=O)(=O)CN1Cc2ncc(N3CC[C@@H](Oc4ccc(Oc5ccc(F)cc5)nc4)C3=O)cc2C1=O [Example 1-66, 3-[(3R)-3-[[6-(4-fluorophenoxy)-3-pyridyl]oxy]-2-oxo-pyrrolidin-1-yl]-6-(methylsulfonylmethyl)-7H-pyrrolo[3,4-b]pyridin-5-one] | 163 nM |
| CS(=O)(=O)CN1Cc2ncc(N3CC[C@@H](Oc4ccc(OCC(F)(F)F)nc4)C3=O)cc2C1=O [Example 1-67, 6-(methylsulfonylmethyl)-3-[(3R)-2-oxo-3-[[6-(2,2,2-trifluoroethoxy)-3-pyridyl]oxy]pyrrolidin-1-yl]-7H-pyrrolo[3,4-b]pyridin-5-one] | 81 nM |
| C[S@+]([O-])CN1Cc2ncc(N3CC[C@@H](Oc4ccc(OCC(F)(F)F)nc4)C3=O)cc2C1=O [Example 1-68, 6-((S)-methanesulfinylmethyl)-3-{(R)-2-oxo-3-[6-(2,2,2-trifluoro-ethoxy)-pyridin-3-yloxy]-pyrrolidin-1-yl}-6,7-dihydro-pyrrolo[3,4-b]pyridin-5-one] | 143 nM |
| C[S@@+]([O-])CN1Cc2ncc(N3CC[C@@H](Oc4ccc(OCC(F)(F)F)nc4)C3=O)cc2C1=O [Example 1-69, 6-((R)-methanesulfinylmethyl)-3-{(R)-2-oxo-3-[6-(2,2,2-trifluoro-ethoxy)-pyridin-3-yloxy]-pyrrolidin-1-yl}-6,7-dihydro-pyrrolo[3,4-b]pyridin-5-one] | 131 nM |
| CN(C)C(=O)CN1Cc2ccc(N3CC[C@@H](Oc4ccc(OC(F)(F)F)cc4)C3=O)cc2C1=O [Example 2-01, N,N-dimethyl-2-[1-oxo-6-[(3R)-2-oxo-3-[4-(trifluoromethoxy)phenoxy]pyrrolidin-1-yl]isoindolin-2-yl]acetamide] | 106 nM |
| CN(C)C(=O)CN1Cc2ccc(N3CC[C@@H](Oc4ccc(CCCC5CC5)nc4)C3=O)cc2C1=O [Example 2-02, 2-[6-[(3R)-3-[[6-(3-cyclopropylpropyl)-3-pyridyl]oxy]-2-oxo-pyrrolidin-1-yl]-1-oxo-isoindolin-2-yl]-N,N-dimethyl-acetamide] | 56 nM |
| CN(C)C(=O)CN1Cc2ccc(N3CC[C@@H](Oc4ccc(O[C@H]5C[C@@H]6C[C@@H]6C5)nc4)C3=O)cc2C1=O [Example 2-03, 2-[6-[(3R)-3-[[6-[[(1S,5R)-3-bicyclo[3.1.0]hexanyl]oxy]-3-pyridyl]oxy]-2-oxo-pyrrolidin-1-yl]-1-oxo-isoindolin-2-yl]-N,N-dimethyl-acetamide] | 54 nM |
| CN(C)C(=O)CN1Cc2ccc(N3CC[C@@H](Oc4ccc(CCC5CC5)nc4)C3=O)cc2C1=O [Example 2-04, 2-[6-[(3R)-3-[[6-(2-cyclopropylethyl)-3-pyridyl]oxy]-2-oxo-pyrrolidin-1-yl]-1-oxo-isoindolin-2-yl]-N,N-dimethyl-acetamide] | 156 nM |
| CN(C)C(=O)CN1Cc2ccc(N3CC[C@@H](Oc4ccc(OCC(F)(F)F)nc4)C3=O)cc2C1=O [Example 2-05, N,N-dimethyl-2-[1-oxo-6-[(3R)-2-oxo-3-[[6-(2,2,2-trifluoroethoxy)-3-pyridyl]oxy]pyrrolidin-1-yl]isoindolin-2-yl]acetamide] | 62 nM |
| CN(C)C(=O)CN1Cc2ccc(N3CC[C@@H](Oc4cnc(OCC5CC5)c(F)c4)C3=O)cc2C1=O [Example 2-06, 2-[6-[(3R)-3-[[6-(cyclopropylmethoxy)-5-fluoro-3-pyridyl]oxy]-2-oxo-pyrrolidin-1-yl]-1-oxo-isoindolin-2-yl]-N,N-dimethyl-acetamide] | 82 nM |
| Cc1cc(O[C@@H]2CCN(c3ccc4c(c3)C(=O)N(CC(=O)N(C)C)C4)C2=O)cnc1OCC1CC1 [Example 2-07, 2-[6-[(3R)-3-[[6-(cyclopropylmethoxy)-5-methyl-3-pyridyl]oxy]-2-oxo-pyrrolidin-1-yl]-1-oxo-isoindolin-2-yl]-N,N-dimethyl-acetamide] | 115 nM |
| CN(C)C(=O)CN1Cc2ccc(N3CC[C@@H](Oc4ccc(NCC5CC5)nc4)C3=O)cc2C1=O [Example 2-08, 2-[6-[(3R)-3-[[6-(cyclopropylmethylamino)-3-pyridyl]oxy]-2-oxo-pyrrolidin-1-yl]-1-oxo-isoindolin-2-yl]-N,N-dimethyl-acetamide] | 2120 nM |
